How the values were obtained:
Test in all cases: Intracellular Ca2+ measurement (fura-2), T-REx-293 cells stably transfected
Type in all cases: cell-based
WT mPIEZO1 = target: T1, WT mPIEZO1 (Mus musculus, UniProt E2JF22); details: 1.5 min exposure
T1 construct: expressed in transfected cells
Method: (§1) T-REx-293 cell line was transfected with pcDNA4/TO-mPIEZO1 constructs using Lipofectamine 2000 (Invitrogen) as above and treated with 200 μg.mL^−1 zeocin (InvivoGen) to select for stably transfected cells. At least two strongly expressing clonal cell lines were established and tested for each variant. All cell lines were maintained in Dulbecco’s Modified Eagle’s medium (Invitrogen) supplemented with 10% heat-inactivated fetal calf serum (Sigma-Aldrich), penicillin (50 units.mL^−1) and streptomycin (0.5 mg.mL^−1) (Sigma-Aldrich) and grown at 37°C in a humidified 5% CO2 incubator.
(§2) For intracellular Ca^2+ assays, cells were plated at 80–90% confluence in 96-well plates 24 h prior to recordings (6–8 × 10^4 cells per well). […] Cells were washed with SBS and incubated at room temperature for 20 min prior to recordings. Equal volumes of 2x concentrated compounds were injected to test for acute channel activation. Pre-incubation with compounds occurred during the 20 min prior to recordings. To expose cell membranes to hypo-osmolality, an equal volume of hypotonic SBS (containing only 35 mM NaCl) was injected onto the cells. Measurements were made on a fluorescence plate reader (Flexstation III, Molecular Devices) at room temperature (21 ± 2°C). Fura-2 was excited at 340 nm and 380 nm and emitted light collected at 510 nm, with measurements shown as the change in fluorescence (F) ratio (ΔF340/380).
(§3) KC41 (Dooku1) was prepared as described.[28] All purchased chemicals and solvents were used without further purification unless otherwise stated. All compounds were at least 95% pure by 1H NMR. 1H Nuclear Magnetic Resonance spectra were recorded at 500 MHz using a Bruker DRX 500 instrument or at 400 MHz using a Bruker DPX 400. 1H spectra are referenced based on the residual proton in the solvent (e.g., the CHCl3, 0.01% in 99.99% CDCl3). Coupling constants (J) are reported to the nearest 0.1 Hz. 13C NMR spectra were recorded at 125 MHz on 500 MHz spectrometers or at 100 MHz on 400 MHz spectrometers. LC-MS was performed on a Bruker Daltronics running a gradient of increasing acetonitrile (5–95%) in H2O both containing 0.1% formic acid at 1 mL.min^−1, on a short path C18 reverse phase column, detecting compounds with both a diode array detector and a Bruker mass spectrum analyser. HRMS was performed on a Bruker Daltonics micrOTOF using positive electrospray ionisation (ES+). Automated column chromatograph was carried out using a Biotage Isolera Four, using either Sfär Silica D or KP-Silica cartridges. HPLC was performed on an Agilent 1290 Infinity Series equipped with a UV detector and Hyperprep C18 reverse phase column. Key to NMR abbreviations: s (singlet), br s (broad singlet) d (doublet), dd (doublet of doublets), ddd (doublet of doublets of doublets), t (triplet), dt (doublet of triples), q (quartet), m (multiplet), ap. t (apparent triplet). For experiments, Yoda1 and its analogues were prepared as 10 mM stock solutions in 100% dimethyl sulfoxide (DMSO) before serial dilution in DMSO and final dilution in aqueous solution. Cells were exposed to 0.1% DMSO for all concentrations of the compounds from 0 to 10 μM.

G1994D mPIEZO1 = target: T2, G1994D mPIEZO1 (Mus musculus, UniProt E2JF22, G1994D); details: for Mean normalise fluorescence (Figure 5d): G1994D
T2 construct: expressed in transfected cells
Method: as §1, §2, §3

I2286T mPIEZO1 = target: T3, I2286T mPIEZO1 (Mus musculus, UniProt E2JF22, I2286T)
T3 construct: expressed in transfected cells
Method: as §1, §2, §3

E824V mPIEZO1 = target: T4, E824V mPIEZO1 (Mus musculus, UniProt E2JF22, E824V); details: versus WT
T4 construct: expressed in transfected cells
Method: as §1, §2, §3

[1] = long (20 min) exposure, normalized to 3 μM Yoda1

T2 sequence (E2JF22 whole entry G1994D): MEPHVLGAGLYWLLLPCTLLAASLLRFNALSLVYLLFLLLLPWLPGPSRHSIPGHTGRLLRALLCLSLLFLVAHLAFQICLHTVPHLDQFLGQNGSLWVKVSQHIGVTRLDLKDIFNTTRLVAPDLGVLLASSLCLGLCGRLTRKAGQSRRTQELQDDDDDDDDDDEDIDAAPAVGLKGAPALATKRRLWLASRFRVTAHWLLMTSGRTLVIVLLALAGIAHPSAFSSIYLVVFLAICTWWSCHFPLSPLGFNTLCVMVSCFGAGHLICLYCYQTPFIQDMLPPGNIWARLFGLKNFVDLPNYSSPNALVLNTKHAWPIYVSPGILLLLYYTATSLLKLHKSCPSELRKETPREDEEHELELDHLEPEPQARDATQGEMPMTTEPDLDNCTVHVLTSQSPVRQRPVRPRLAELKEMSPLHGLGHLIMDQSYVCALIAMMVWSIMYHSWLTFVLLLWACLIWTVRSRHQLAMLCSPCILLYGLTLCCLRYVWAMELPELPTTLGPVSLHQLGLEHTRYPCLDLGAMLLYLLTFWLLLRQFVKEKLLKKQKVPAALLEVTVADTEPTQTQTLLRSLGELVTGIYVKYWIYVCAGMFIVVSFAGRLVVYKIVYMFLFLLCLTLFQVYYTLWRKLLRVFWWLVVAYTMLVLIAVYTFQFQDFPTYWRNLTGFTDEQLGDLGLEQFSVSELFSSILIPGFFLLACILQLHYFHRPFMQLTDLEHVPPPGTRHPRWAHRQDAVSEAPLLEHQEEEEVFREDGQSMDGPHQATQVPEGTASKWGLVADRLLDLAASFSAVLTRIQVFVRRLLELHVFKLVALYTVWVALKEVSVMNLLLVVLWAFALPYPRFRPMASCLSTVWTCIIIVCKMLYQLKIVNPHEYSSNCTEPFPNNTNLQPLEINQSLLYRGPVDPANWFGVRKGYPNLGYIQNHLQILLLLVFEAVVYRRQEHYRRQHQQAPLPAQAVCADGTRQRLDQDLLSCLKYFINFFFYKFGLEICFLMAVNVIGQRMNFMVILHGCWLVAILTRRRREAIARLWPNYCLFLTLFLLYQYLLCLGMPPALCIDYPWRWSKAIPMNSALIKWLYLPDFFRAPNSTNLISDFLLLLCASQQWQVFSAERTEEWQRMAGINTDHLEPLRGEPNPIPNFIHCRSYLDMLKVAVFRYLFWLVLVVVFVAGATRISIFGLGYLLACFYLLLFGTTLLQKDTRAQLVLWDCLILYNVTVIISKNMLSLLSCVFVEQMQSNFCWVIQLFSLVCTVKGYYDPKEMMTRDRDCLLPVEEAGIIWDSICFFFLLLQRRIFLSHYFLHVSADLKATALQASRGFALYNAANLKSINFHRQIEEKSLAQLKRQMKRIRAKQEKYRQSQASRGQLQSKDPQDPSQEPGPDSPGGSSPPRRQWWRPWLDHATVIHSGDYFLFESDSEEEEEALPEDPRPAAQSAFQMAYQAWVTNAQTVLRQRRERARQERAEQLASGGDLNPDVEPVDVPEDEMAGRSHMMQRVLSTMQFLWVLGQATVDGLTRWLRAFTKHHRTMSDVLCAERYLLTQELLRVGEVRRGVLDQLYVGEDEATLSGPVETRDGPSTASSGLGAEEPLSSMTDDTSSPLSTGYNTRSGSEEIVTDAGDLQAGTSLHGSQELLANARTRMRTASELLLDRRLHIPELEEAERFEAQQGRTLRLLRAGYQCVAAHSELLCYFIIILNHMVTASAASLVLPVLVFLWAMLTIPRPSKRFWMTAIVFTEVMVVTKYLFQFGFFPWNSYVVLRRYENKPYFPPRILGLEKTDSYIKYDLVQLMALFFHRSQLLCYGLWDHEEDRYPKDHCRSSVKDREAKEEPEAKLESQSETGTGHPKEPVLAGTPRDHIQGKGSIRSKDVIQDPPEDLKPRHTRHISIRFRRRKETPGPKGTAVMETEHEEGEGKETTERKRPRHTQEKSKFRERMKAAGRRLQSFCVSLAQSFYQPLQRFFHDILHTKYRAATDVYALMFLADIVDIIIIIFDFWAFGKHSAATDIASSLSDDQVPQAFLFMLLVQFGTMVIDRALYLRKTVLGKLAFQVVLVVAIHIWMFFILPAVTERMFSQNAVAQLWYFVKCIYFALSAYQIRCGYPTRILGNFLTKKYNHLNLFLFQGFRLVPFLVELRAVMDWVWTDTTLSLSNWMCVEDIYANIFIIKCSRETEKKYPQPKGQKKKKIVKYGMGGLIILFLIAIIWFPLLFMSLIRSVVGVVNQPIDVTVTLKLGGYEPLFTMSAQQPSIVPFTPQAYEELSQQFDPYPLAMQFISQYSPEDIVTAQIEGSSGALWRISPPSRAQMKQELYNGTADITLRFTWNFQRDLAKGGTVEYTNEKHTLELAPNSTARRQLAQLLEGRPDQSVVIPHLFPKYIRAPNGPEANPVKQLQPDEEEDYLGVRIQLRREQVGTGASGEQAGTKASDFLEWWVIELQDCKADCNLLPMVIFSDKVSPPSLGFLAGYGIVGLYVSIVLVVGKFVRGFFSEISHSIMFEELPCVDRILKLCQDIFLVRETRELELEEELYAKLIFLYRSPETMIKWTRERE
T1 sequence (E2JF22 whole entry): as the sequence (E2JF22 whole entry G1994D) above, with D1994G counted along it
T3 sequence (E2JF22 whole entry I2286T): as the sequence (E2JF22 whole entry G1994D) above, with D1994G, I2286T counted along it
T4 sequence (E2JF22 whole entry E824V): as the sequence (E2JF22 whole entry G1994D) above, with E824V, D1994G counted along it

Mean normalise fluorescence (WT mPIEZO1; 0.01 µM): 0.01111 | Mean normalise fluorescence (WT mPIEZO1; 0.03 µM): 0.04107 | Mean normalise fluorescence (WT mPIEZO1; 0.1 µM): 0.2255 | Mean normalise fluorescence (WT mPIEZO1; 0.3 µM): 0.6112 | Mean normalise fluorescence (WT mPIEZO1; 1 µM): 0.8879 | Mean normalise fluorescence (WT mPIEZO1; 3 µM): 0.9862 | Mean normalise fluorescence (WT mPIEZO1; 5 µM): 1.0356 | Mean normalise fluorescence (WT mPIEZO1; 10 µM): 1 | EC50 (WT mPIEZO1; fitted Hill equation): 240 nM | Mean normalise fluorescence (Figure 5d) (G1994D mPIEZO1; Yoda1 concentration 0.01 µM): 0.00218 | Mean normalise fluorescence (Figure 5d) (G1994D mPIEZO1; Yoda1 concentration 0.03 µM): 0.00674 | Mean normalise fluorescence (Figure 5d) (G1994D mPIEZO1; Yoda1 concentration 0.1 µM): 0.01862 | Mean normalise fluorescence (Figure 5d) (G1994D mPIEZO1; Yoda1 concentration 0.3 µM): 0.1159 | Mean normalise fluorescence (Figure 5d) (G1994D mPIEZO1; Yoda1 concentration 1 µM): 0.3636 | Mean normalise fluorescence (Figure 5d) (G1994D mPIEZO1; Yoda1 concentration 3 µM): 0.6853 | Mean normalise fluorescence (Figure 5d) (G1994D mPIEZO1; Yoda1 concentration 5 µM): 0.8762 | Mean normalise fluorescence (Figure 5d) (G1994D mPIEZO1; Yoda1 concentration 10 µM): 1 | EC50 (G1994D mPIEZO1; [1]): 310 nM | Mean (ΔFratio) (I2286T mPIEZO1; 0.3 µM, time 0 s): 0.00284 | Mean (ΔFratio) (I2286T mPIEZO1; 0.3 µM, time 5 s): -0.01214 | Mean (ΔFratio) (I2286T mPIEZO1; 0.3 µM, time 10 s): -0.00475 | Mean (ΔFratio) (I2286T mPIEZO1; 0.3 µM, time 15 s): 0.0078 | Mean (ΔFratio) (I2286T mPIEZO1; 0.3 µM, time 20 s): 0.0053 | Mean (ΔFratio) (I2286T mPIEZO1; 0.3 µM, time 25 s): 9.46E-04 | Mean (ΔFratio) (I2286T mPIEZO1; 0.3 µM, time 30 s): -0.3226 | Mean (ΔFratio) (I2286T mPIEZO1; 0.3 µM, time 35 s): 0.06275 | Mean (ΔFratio) (I2286T mPIEZO1; 0.3 µM, time 40 s): 0.07886 | Mean (ΔFratio) (I2286T mPIEZO1; 0.3 µM, time 45 s): 0.1026 | Mean (ΔFratio) (I2286T mPIEZO1; 0.3 µM, time 50 s): 0.1196 | Mean (ΔFratio) (I2286T mPIEZO1; 0.3 µM, time 55 s): 0.1055 | Mean (ΔFratio) (I2286T mPIEZO1; 0.3 µM, time 60 s): 0.1268 | Mean (ΔFratio) (I2286T mPIEZO1; 0.3 µM, time 65 s): 0.1277 | Mean (ΔFratio) (I2286T mPIEZO1; 0.3 µM, time 70 s): 0.1132 | Mean (ΔFratio) (I2286T mPIEZO1; 0.3 µM, time 75 s): 0.108 | Mean (ΔFratio) (I2286T mPIEZO1; 0.3 µM, time 80 s): 0.1196 | Mean (ΔFratio) (I2286T mPIEZO1; 0.3 µM, time 85 s): 0.1097 | Mean (ΔFratio) (I2286T mPIEZO1; 0.3 µM, time 90 s): 0.1266 | Mean (ΔFratio) (I2286T mPIEZO1; 0.3 µM, time 95 s): 0.09696 | Mean (ΔFratio) (I2286T mPIEZO1; 0.3 µM, time 100 s): 0.1131 | Mean (ΔFratio) (I2286T mPIEZO1; 0.3 µM, time 105 s): 0.1125 | Mean (ΔFratio) (I2286T mPIEZO1; 0.3 µM, time 110 s): 0.1236 | Mean (ΔFratio) (I2286T mPIEZO1; 0.3 µM, time 115 s): 0.1032 | Mean (ΔFratio) (I2286T mPIEZO1; 0.3 µM, time 120 s): 0.1051 | Mean (ΔFratio) (I2286T mPIEZO1; 0.3 µM, time 125 s): 0.1128 | Mean (ΔFratio) (I2286T mPIEZO1; 0.3 µM, time 130 s): 0.1149 | Mean (ΔFratio) (I2286T mPIEZO1; 3 µM, time 0 s): 0.00514 | Mean (ΔFratio) (I2286T mPIEZO1; 3 µM, time 5 s): -0.00971 | Mean (ΔFratio) (I2286T mPIEZO1; 3 µM, time 10 s): -0.01128 | Mean (ΔFratio) (I2286T mPIEZO1; 3 µM, time 15 s): -0.00374 | Mean (ΔFratio) (I2286T mPIEZO1; 3 µM, time 20 s): 0.00352 | Mean (ΔFratio) (I2286T mPIEZO1; 3 µM, time 25 s): 0.01607 | Mean (ΔFratio) (I2286T mPIEZO1; 3 µM, time 30 s): -0.3514 | Mean (ΔFratio) (I2286T mPIEZO1; 3 µM, time 35 s): -7.87E-04 | Mean (ΔFratio) (I2286T mPIEZO1; 3 µM, time 40 s): 0.4454 | Mean (ΔFratio) (I2286T mPIEZO1; 3 µM, time 45 s): 0.684 | Mean (ΔFratio) (I2286T mPIEZO1; 3 µM, time 50 s): 0.8254 | Mean (ΔFratio) (I2286T mPIEZO1; 3 µM, time 55 s): 0.9146 | Mean (ΔFratio) (I2286T mPIEZO1; 3 µM, time 60 s): 1.017 | Mean (ΔFratio) (I2286T mPIEZO1; 3 µM, time 65 s): 0.992 | Mean (ΔFratio) (I2286T mPIEZO1; 3 µM, time 70 s): 1.046 | Mean (ΔFratio) (I2286T mPIEZO1; 3 µM, time 75 s): 1.071 | Mean (ΔFratio) (I2286T mPIEZO1; 3 µM, time 80 s): 1.067 | Mean (ΔFratio) (I2286T mPIEZO1; 3 µM, time 85 s): 1.06 | Mean (ΔFratio) (I2286T mPIEZO1; 3 µM, time 90 s): 1.0819 | Mean (ΔFratio) (I2286T mPIEZO1; 3 µM, time 95 s): 1.076 | Mean (ΔFratio) (I2286T mPIEZO1; 3 µM, time 100 s): 1.0617 | Mean (ΔFratio) (I2286T mPIEZO1; 3 µM, time 105 s): 1.0398 | Mean (ΔFratio) (I2286T mPIEZO1; 3 µM, time 110 s): 1.005 | Mean (ΔFratio) (I2286T mPIEZO1; 3 µM, time 115 s): 1.038 | Mean (ΔFratio) (I2286T mPIEZO1; 3 µM, time 120 s): 1.008 | Mean (ΔFratio) (I2286T mPIEZO1; 3 µM, time 125 s): 0.9978 | Mean (ΔFratio) (I2286T mPIEZO1; 3 µM, time 130 s): 0.9846 | Mean normalise fluorescence (I2286T mPIEZO1; 1.5 min exposure, 0.03 µM): -0.00469 | Mean normalise fluorescence (I2286T mPIEZO1; 1.5 min exposure, 0.1 µM): -0.00217 | Mean normalise fluorescence (I2286T mPIEZO1; 1.5 min exposure, 0.3 µM): 0.03506 | Mean normalise fluorescence (I2286T mPIEZO1; 1.5 min exposure, 1 µM): 0.1805 | Mean normalise fluorescence (I2286T mPIEZO1; 1.5 min exposure, 3 µM): 0.4613 | Mean normalise fluorescence (I2286T mPIEZO1; 1.5 min exposure, 5 µM): 0.7197 | Mean normalise fluorescence (I2286T mPIEZO1; 1.5 min exposure, 10 µM): 1 | Mean normalise fluorescence (I2286T mPIEZO1; 20 min exposure, normalized to 3 μM, 0.03 µM): 0.09646 | Mean normalise fluorescence (I2286T mPIEZO1; 20 min exposure, normalized to 3 μM, 0.1 µM): 0.04298 | Mean normalise fluorescence (I2286T mPIEZO1; 20 min exposure, normalized to 3 μM, 0.3 µM): 0.2627 | Mean normalise fluorescence (I2286T mPIEZO1; 20 min exposure, normalized to 3 μM, 1 µM): 0.9872 | Mean normalise fluorescence (I2286T mPIEZO1; 20 min exposure, normalized to 3 μM, 3 µM): 1 | Mean normalise fluorescence (I2286T mPIEZO1; 20 min exposure, normalized to 3 μM, 10 µM): 0.9221 | EC50 (I2286T mPIEZO1; [1]): 410 nM | Effect on mPIEZO1 channel function (I2286T mPIEZO1; versus WT): loss of MA: LOF; reduced Y1 potency | Effect on mPIEZO1 channel function (E824V mPIEZO1): reduced Y1 potency
Compound: Clc1cccc(Cl)c1CSc1nnc(-c2cnccn2)s1 [Yoda1]
Effect on mPIEZO1 channel function (G1994D mPIEZO1; versus WT): reduced MA: LOF; reduced inactivation: GOF; reduced Y1 potency

Source: paper PMC12337661, “PIEZO1 mechanical insensitivity in generalized lymphatic dysplasia with the potential for pharmacological rescue” (iScience, 2025)
